Laboratory results published in patent US20050215614A1, “Substituted indoles and their use as hcv inhibitors” (Rigel Pharmaceuticals, Inc., priority 2003, published 2005).

tested on: HCV replicon; assay: HCV Replicon Assay (luciferase, 5-2 Luc replicon cells); assay type: cell-based; details: 5-2 Luc replicon cells (Huh7), 24-48 hours with compound, luciferase counts
Summary of the method: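 Huh7-derived 5-2 Luc replicon cells were seeded at 5000-7500 cells/well, grown 24 h at 37° C. and 5% CO2, then exposed to serial compound concentrations for 24-48 hours.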

SMILES | Activity (concentration of inhibitory activity)
CC(C)(C)c1cc2cc(NC(=O)Cc3ccc(-c4ccccc4)cc3)ccc2[nH]1 [Compound 221] | b (“b” indicates activity is at a concentration greater than 10 micromolar)
CN(C)CCCC(=O)Nc1ccc2[nH]c(C(C)(C)C)cc2c1 [Compound 222] | b (“b” indicates activity is at a concentration greater than 10 micromolar)
COc1cscc1C(=O)Nc1ccc2[nH]c(C(C)(C)C)cc2c1 [Compound 223] | a (“a” indicates inhibitory activity at a concentration of less than 10 micromolar)
CCCC(=O)Nc1ccc2[nH]c(C(C)(C)C)cc2c1 [Compound 224] | b (“b” indicates activity is at a concentration greater than 10 micromolar)
CC(C)(C)c1cc2cc(NC(=O)c3ccccc3)ccc2[nH]1 [Compound 225] | b (“b” indicates activity is at a concentration greater than 10 micromolar)
CC(C)(C)c1cc2cc(NC(=O)c3cccc(F)c3)ccc2[nH]1 [Compound 226] | b (“b” indicates activity is at a concentration greater than 10 micromolar)
CC(C)(C)c1cc2cc(NC(=O)c3cccc(Cl)c3)ccc2[nH]1 [Compound 227] | b (“b” indicates activity is at a concentration greater than 10 micromolar)
CC(C)(C)c1cc2cc(NC(=O)c3cc4ccccc4s3)ccc2[nH]1 [Compound 228] | b (“b” indicates activity is at a concentration greater than 10 micromolar)
CC(C)(C)c1cc2cc(NC(=O)c3sccc3Cl)ccc2[nH]1 [Compound 229] | b (“b” indicates activity is at a concentration greater than 10 micromolar)
CC(C)(C)c1cc2cc(NC(=O)c3ccco3)ccc2[nH]1 [Compound 230] | b (“b” indicates activity is at a concentration greater than 10 micromolar)
Cc1cn(C(=O)c2c(Cl)cccc2Cl)c2ccc(NC(=O)C3(c4ccc(Cl)cc4)CCCC3)cc12 [Compound 231] | b (“b” indicates activity is at a concentration greater than 10 micromolar)
Cc1cn(C(=O)c2c(Cl)cccc2Cl)c2ccc(NC(=O)c3c(Cl)cccc3Cl)cc12 [Compound 232] | b (“b” indicates activity is at a concentration greater than 10 micromolar)
Cc1ccsc1C(=O)Nc1ccc2c(c1)c(C)cn2C(=O)c1c(Cl)cccc1Cl [Compound 233] | b (“b” indicates activity is at a concentration greater than 10 micromolar)
Cc1cn(C(=O)c2c(Cl)cccc2Cl)c2ccc(NC(=O)c3c(F)cccc3F)cc12 [Compound 235] | b (“b” indicates activity is at a concentration greater than 10 micromolar)
Cc1cn(C(=O)c2c(Cl)cccc2Cl)c2ccc(NC(=O)C3CCCCC3)cc12 [Compound 236] | b (“b” indicates activity is at a concentration greater than 10 micromolar)
Cc1cn(C(=O)c2c(Cl)cccc2Cl)c2ccc(NC(=O)/C=C/c3ccccc3)cc12 [Compound 237] | b (“b” indicates activity is at a concentration greater than 10 micromolar)
Cc1c(C)n(C(=O)c2c(Cl)cccc2Cl)c2ccc(NC(=O)/C=C/c3ccccc3)cc12 [Compound 238] | b (“b” indicates activity is at a concentration greater than 10 micromolar)
Cc1cc2cc(NC(=O)C3CCCC3)ccc2n1C(=O)c1ccc(Cl)cc1Cl [Compound 239] | b (“b” indicates activity is at a concentration greater than 10 micromolar)
Cc1cc2cc(NC(=O)C3CCCC3)ccc2n1C(=O)c1cccc(OC(F)(F)F)c1 [Compound 240] | b (“b” indicates activity is at a concentration greater than 10 micromolar)
Cc1cc2cc(NC(=O)C(Cl)Cl)ccc2n1C(=O)c1c(Cl)cccc1Cl [Compound 241] | b (“b” indicates activity is at a concentration greater than 10 micromolar)
Cc1cc2cc(NC(=O)c3cccs3)ccc2n1C(=O)c1c(Cl)cccc1Cl [Compound 242] | b (“b” indicates activity is at a concentration greater than 10 micromolar)
Cc1cc2cc(NC(=O)c3cccc(C(F)(F)F)c3)ccc2n1C(=O)c1c(Cl)cccc1Cl [Compound 243] | b (“b” indicates activity is at a concentration greater than 10 micromolar)
Cc1cc2cc(NC(=O)c3cccc(F)c3)ccc2n1C(=O)c1c(Cl)cccc1Cl [Compound 244] | b (“b” indicates activity is at a concentration greater than 10 micromolar)
Cc1cc2cc(NC(=O)c3nc4ccccc4s3)ccc2n1C(=O)c1c(Cl)cccc1Cl [Compound 245] | b (“b” indicates activity is at a concentration greater than 10 micromolar)
CC(=O)N1CCC(C(=O)Nc2ccc3c(c2)cc(C)n3C(=O)c2c(Cl)cccc2Cl)CC1 [Compound 246] | b (“b” indicates activity is at a concentration greater than 10 micromolar)

SMILES | Activity (concentration of inhibitory activity)
O=C(Nc1ccc2c(ccn2C(=O)c2c(Cl)cccc2Cl)c1)C1CCCC1 [Compound 247] | b (“b” indicates activity is at a concentration greater than 10 micromolar)
O=C(Nc1ccc2c(ccn2C(=O)c2c(Cl)cccc2Cl)c1)C(Cl)Cl [Compound 248] | b (“b” indicates activity is at a concentration greater than 10 micromolar)
O=C(Nc1ccc2c(ccn2C(=O)c2c(Cl)cccc2Cl)c1)c1cccc(F)c1 [Compound 249] | b (“b” indicates activity is at a concentration greater than 10 micromolar)
O=C(Nc1ccc2c(ccn2C(=O)c2c(Cl)cccc2Cl)c1)c1cccc(C(F)(F)F)c1 [Compound 250] | b (“b” indicates activity is at a concentration greater than 10 micromolar)
O=C(Nc1ccc2c(ccn2C(=O)c2c(Cl)cccc2Cl)c1)c1cccs1 [Compound 251] | b (“b” indicates activity is at a concentration greater than 10 micromolar)
O=C(Nc1ccc2c(ccn2C(=O)c2c(Cl)cccc2Cl)c1)C1CCCCC1 [Compound 252] | b (“b” indicates activity is at a concentration greater than 10 micromolar)
O=C(Nc1ccc2c(ccn2C(=O)c2c(Cl)cccc2Cl)c1)C1CC1 [Compound 254] | b (“b” indicates activity is at a concentration greater than 10 micromolar)
O=C(Cc1cccnc1)Nc1ccc2c(ccn2C(=O)c2c(Cl)cccc2Cl)c1 [Compound 255] | b (“b” indicates activity is at a concentration greater than 10 micromolar)
Cc1cc2cc(NC(=O)c3sccc3Cl)ccc2n1C(=O)c1c(Cl)cccc1Cl [Compound 256] | b (“b” indicates activity is at a concentration greater than 10 micromolar)
Cc1cc2cc(NC(=O)c3cccnc3)ccc2n1C(=O)c1c(F)cccc1C(F)(F)F [Compound 257] | b (“b” indicates activity is at a concentration greater than 10 micromolar)
O=C(Nc1ccc2c(ccn2C(=O)c2c(Cl)cccc2Cl)c1)C1CCC1 [Compound 258] | b (“b” indicates activity is at a concentration greater than 10 micromolar)
Cc1cc2cc(NC(=O)C3CC3)ccc2n1C(=O)c1ccccc1 [Compound 259] | b (“b” indicates activity is at a concentration greater than 10 micromolar)
Cc1cc2cc(NC(=O)C3CCCCC3)ccc2n1C(=O)c1ccccc1 [Compound 260] | b (“b” indicates activity is at a concentration greater than 10 micromolar)
Cc1cccc(F)c1C(=O)n1c(C)cc2cc(NC(=O)C3CCCCC3)ccc21 [Compound 262] | b (“b” indicates activity is at a concentration greater than 10 micromolar)
Cc1cc2cc(NC(=O)CBr)ccc2n1C(=O)c1c(Cl)cccc1Cl [Compound 263] | b (“b” indicates activity is at a concentration greater than 10 micromolar)
Cc1cc2cc(NC(=O)C3CCCCC3)ccc2n1C(=O)c1c(Cl)cncc1Cl [Compound 265] | b (“b” indicates activity is at a concentration greater than 10 micromolar)
Cc1cc2cc(NC(=O)C3CCNCC3)ccc2n1C(=O)c1c(Cl)cccc1Cl [Compound 266] | a (“a” indicates inhibitory activity at a concentration of less than 10 micromolar)
Cc1cc2cc(NC(=O)C3CCCCC3)ccc2n1C(=O)c1c(Cl)cccc1Cl [Compound 267] | b (“b” indicates activity is at a concentration greater than 10 micromolar)
Cc1cc2cc(NC(=O)[C@H]3CCCN3)ccc2n1C(=O)c1c(Cl)cccc1Cl [Compound 268] | b (“b” indicates activity is at a concentration greater than 10 micromolar)
Cc1cc2cc(NC(=O)C3CCN(C(=O)OC(C)(C)C)CC3)ccc2n1C(=O)c1c(F)cccc1Cl [Compound 269] | b (“b” indicates activity is at a concentration greater than 10 micromolar)
Cc1cccc(C)c1C(=O)n1c(C)cc2cc(NC(=O)[C@H]3CCCN3)ccc21 [Compound 270] | b (“b” indicates activity is at a concentration greater than 10 micromolar)
Cc1cc2cc(NC(=O)[C@H]3CCCN3)ccc2n1C(=O)c1c(F)cccc1Cl [Compound 271] | b (“b” indicates activity is at a concentration greater than 10 micromolar)
Cc1cc2cc(NC(=O)C3CCCNC3)ccc2n1C(=O)c1c(F)cccc1Cl (centres unmarked) [Compound 272] | b (“b” indicates activity is at a concentration greater than 10 micromolar)
Cc1cc2cc(NC(=O)C3CCNCC3)ccc2n1C(=O)c1c(F)cccc1Cl [Compound 273] | b (“b” indicates activity is at a concentration greater than 10 micromolar)
CCc1ccc(C(=O)n2c(C)cc3cc(NC(=O)C4CCCC4)ccc32)cc1 [Compound 274] | b (“b” indicates activity is at a concentration greater than 10 micromolar)
